The values below come from paper PMC12316058 (Nature chemical biology, 2024).

SMILES strings stand for the structures.

One assay addresses T1, Cs (R)-Bdh (Clostridium saccharoperbutylacetonicum, UniProt M1MWX5).
T1 sequence (M1MWX5 1-361): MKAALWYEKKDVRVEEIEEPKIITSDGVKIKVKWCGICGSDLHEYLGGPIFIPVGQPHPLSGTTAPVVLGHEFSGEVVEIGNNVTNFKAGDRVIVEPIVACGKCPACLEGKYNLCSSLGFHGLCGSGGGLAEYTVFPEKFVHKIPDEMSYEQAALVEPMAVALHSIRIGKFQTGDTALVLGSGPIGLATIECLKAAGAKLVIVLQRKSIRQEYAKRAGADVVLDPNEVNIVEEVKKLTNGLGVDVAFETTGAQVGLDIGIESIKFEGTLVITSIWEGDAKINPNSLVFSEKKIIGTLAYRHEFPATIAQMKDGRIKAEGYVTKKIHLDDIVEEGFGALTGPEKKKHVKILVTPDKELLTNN
Briefly: specific activity, absorbance at […] nm. As to conditions: 10 mM m-BDO, 4 mM NADP+, 50 mM glycine-NaOH pH 10.0. The assay is classed as biochemical.

For a further assay, the target named is T2, Ll Nox (Lactococcus cremoris, UniProt A2RIB7).
T2 sequence (A2RIB7 1-446): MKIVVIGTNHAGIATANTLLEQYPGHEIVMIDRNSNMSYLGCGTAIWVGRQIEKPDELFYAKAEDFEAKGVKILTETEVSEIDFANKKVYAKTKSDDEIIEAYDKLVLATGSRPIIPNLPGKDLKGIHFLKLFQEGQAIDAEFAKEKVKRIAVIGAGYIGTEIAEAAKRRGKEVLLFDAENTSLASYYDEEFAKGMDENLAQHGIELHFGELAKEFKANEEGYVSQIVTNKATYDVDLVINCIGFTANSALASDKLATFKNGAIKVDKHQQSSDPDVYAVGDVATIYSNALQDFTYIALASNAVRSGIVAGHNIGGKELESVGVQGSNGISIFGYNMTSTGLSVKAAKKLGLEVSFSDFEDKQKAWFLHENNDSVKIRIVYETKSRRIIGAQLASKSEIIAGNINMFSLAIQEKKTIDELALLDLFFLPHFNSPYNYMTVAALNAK
Nature of the assay: absorbance at […] nm, initial rates. It is filed as biochemical. As to conditions: 50 mM Tris-Cl pH 7.0, 37 °C; O2 as acceptor.

Consider `NC(=O)c1ccc[n+]([C@@H]2O[C@H](COP(=O)(O)OP(=O)(O)OC[C@H]3O[C@@H](n4cnc5c(N)ncnc54)[C@H](OP(=O)(O)O)[C@@H]3O)[C@@H](O)[C@H]2O)c1` [NADP+], for which the specific activity entry on Cs (R)-Bdh is recorded as “We subsequently confirmed specific activity with NADP^+”.

Regarding `NC(=O)C1=CN([C@@H]2O[C@H](COP(=O)(O)O)[C@@H](O)[C@H]2O)C=CC1` [NMNH], the kcat/Km app entry at Ll Nox was “Ll Nox WT (gray) and Nox Ortho (yellow) toward NADH, NADPH and NMNH”.
